Activity calls are given as the source filed them. The calls are words filed in the database; no cut-off is given here.

The target in data set [1] is Sigma non-opioid intracellular receptor 1 (Homo sapiens, UniProt Q99720). The data set is described as follows: Displacement of [3H](+)-pentazocine from sigma 1 receptor in human RPMI8226 cell membranes incubated for 2 hrs under shaking by scintillation counting analysis. For orientation: In a radioligand displacement assay an active substance lowers the binding of a labelled ligand.

For the next data set, the target named is Mu-type opioid receptor (Cavia porcellus, UniProt P97266). Put plainly: Displacement of [3H]DAMGO from mu opioid receptor in guinea pig brain membranes after 120 mins by scintillation counting analysis. The class given is cell membranes.
For the next data set, the species on record is Sus scrofa. The data set is described as follows: Displacement of [3H]-(+)-MK-801 from PCP binding site of NMDA receptor in pig brain cortex membranes up to 1 uM after 120 mins by scintillation counting analysis. The data set is classed as cell membranes.
The next data set concerns the target Cytochrome P450 2C19 (Homo sapiens, UniProt P33261). The data set is described as follows: Inhibition of recombinant human CYP2C19 at 1 uM by fluorescence assay. The class given is ADME. The conditions noted are these: recombinant enzyme.
The target of data set [2] is Sigma non-opioid intracellular receptor 1 (Rattus norvegicus) (UniProt Q9R0C9). The data set is described as follows: Antagonist activity at sigma 1 receptor in rat PC12 cells assessed as suppression of opipramol-induced inhibition of KCl-stimulated intracellular calcium influx at 10 nM preincubated for 5 mins followed by opipramol addition for 5 mins and subsequent KCl-stimulation by fura-2-AM dye based fluorescence assay. The data set is classed as cell-based. For orientation: A change in cytosolic calcium serves as a functional read-out for many receptors and channels.

For data set [3], the target named is Sodium-dependent noradrenaline transporter (Homo sapiens) (UniProt P23975). The data set is described as follows: Binding affinity to noradrenaline transporter (unknown origin) at 1 uM.
In data set [4] the target is T1, Alpha-2A adrenergic receptor (Homo sapiens) (UniProt P08913).
T1 sequence (whole entry): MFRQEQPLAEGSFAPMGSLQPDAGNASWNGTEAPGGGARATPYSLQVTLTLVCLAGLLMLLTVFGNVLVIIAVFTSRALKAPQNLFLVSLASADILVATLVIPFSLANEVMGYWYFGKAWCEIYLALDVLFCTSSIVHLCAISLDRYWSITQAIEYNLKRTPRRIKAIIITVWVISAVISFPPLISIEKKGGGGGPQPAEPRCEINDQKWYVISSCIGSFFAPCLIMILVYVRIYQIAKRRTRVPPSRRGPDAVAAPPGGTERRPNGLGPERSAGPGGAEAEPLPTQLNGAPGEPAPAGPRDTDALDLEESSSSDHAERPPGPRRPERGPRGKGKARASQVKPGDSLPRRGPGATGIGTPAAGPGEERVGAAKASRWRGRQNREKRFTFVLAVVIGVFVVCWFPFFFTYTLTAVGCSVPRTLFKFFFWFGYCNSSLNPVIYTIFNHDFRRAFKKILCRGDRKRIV
Put plainly: Binding affinity to alpha 2a adrenergic receptor (unknown origin) at 1 uM relative to control.

Chain of Sigma non-opioid intracellular receptor 1 (Q99720 whole entry): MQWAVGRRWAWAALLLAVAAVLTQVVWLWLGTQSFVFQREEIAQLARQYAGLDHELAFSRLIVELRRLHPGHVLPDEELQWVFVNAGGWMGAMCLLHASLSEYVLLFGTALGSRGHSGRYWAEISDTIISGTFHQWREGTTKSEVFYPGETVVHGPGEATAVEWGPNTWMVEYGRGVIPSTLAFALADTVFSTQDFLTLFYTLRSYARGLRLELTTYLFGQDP
Chain of Cytochrome P450 2C19 (P33261 whole entry): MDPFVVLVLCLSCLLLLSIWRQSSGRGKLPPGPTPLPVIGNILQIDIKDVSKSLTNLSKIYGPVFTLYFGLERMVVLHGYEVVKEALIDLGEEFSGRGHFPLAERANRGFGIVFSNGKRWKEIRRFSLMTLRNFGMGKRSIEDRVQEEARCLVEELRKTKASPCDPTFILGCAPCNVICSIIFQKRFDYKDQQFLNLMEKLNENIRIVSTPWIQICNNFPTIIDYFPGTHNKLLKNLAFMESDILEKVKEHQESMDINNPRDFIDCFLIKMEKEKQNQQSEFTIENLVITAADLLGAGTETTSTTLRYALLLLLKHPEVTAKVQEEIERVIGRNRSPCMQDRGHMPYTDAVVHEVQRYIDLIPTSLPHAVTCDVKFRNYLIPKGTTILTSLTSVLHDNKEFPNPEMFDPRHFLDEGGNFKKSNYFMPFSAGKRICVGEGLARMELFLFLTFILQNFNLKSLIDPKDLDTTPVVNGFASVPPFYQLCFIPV
Chain of Mu-type opioid receptor (P97266 whole entry): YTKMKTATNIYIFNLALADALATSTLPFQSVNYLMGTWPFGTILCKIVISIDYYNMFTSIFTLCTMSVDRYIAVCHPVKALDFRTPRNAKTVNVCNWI
Chain of Sodium-dependent noradrenaline transporter (Homo sapiens) (P23975 whole entry): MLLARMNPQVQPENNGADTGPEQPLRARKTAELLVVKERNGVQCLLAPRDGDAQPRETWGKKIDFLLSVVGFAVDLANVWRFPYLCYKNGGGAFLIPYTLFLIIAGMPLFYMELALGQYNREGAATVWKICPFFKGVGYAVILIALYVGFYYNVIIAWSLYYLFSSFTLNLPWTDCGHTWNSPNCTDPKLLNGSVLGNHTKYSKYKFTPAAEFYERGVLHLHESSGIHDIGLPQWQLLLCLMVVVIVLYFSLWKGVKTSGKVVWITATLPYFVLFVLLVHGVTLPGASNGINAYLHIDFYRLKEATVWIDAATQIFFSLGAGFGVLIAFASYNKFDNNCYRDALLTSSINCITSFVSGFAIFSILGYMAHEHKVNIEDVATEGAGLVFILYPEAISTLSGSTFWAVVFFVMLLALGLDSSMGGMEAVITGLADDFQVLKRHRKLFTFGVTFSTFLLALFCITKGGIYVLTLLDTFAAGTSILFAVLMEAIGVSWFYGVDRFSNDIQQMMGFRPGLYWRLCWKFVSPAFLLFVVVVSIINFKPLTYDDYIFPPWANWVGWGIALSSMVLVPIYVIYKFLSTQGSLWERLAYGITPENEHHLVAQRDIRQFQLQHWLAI
Chain of Sigma non-opioid intracellular receptor 1 (Rattus norvegicus) (Q9R0C9 whole entry): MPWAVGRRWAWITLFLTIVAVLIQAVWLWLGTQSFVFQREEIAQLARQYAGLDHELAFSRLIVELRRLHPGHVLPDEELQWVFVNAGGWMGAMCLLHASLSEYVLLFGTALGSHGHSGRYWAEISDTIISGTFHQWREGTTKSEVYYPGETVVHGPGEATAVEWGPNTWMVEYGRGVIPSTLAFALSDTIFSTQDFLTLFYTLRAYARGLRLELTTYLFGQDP

Regarding `COC1Cc2ccccc2[C@]2(CC[C@H](N(C)CC3CCCCC3)CC2)O1` (some centres not stated), the Ki was 7.3 nM in data set [1] and 391 nM on Mu-type opioid receptor. Moreover, the outcome (in the data set filed under Sus scrofa; in data set [3]) was inactive. The “inhibition (INH)” value at Cytochrome P450 2C19 is reported as “Not Active”. In addition, in data set [2], the inhibition entry is “Active”. Moreover, the Activity in data set [4] was 93%.

Usually Ki stands for the equilibrium dissociation constant of an inhibitor or competing ligand from its target. Lower therefore signals a stronger hold on the target.

(Values after ChEMBL document CHEMBL4385605, “Synthesis and Structure-Affinity Relationships of Spirocyclic Benzopyrans with Exocyclic Amino Moiety” (J Med Chem, 2019).)
